Results as given in patent publication US6737383B1, “Herbicidal oxadiazolidines” (priority 1999, dated 2004).

Experiments:
[1] = test system: morningglory; experiment: Test B pre/postemergence morningglory; type: in vivo, Ipomoea hederacea
Summary of the method: (§1)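 Test chemicals in a non-phytotoxic solvent mixture with surfactant were sprayed preemergence onto planted seeds and postemergence onto plants 2 to 18 cm tall (1- to 4-leaf stage). After twelve to sixteen days in a greenhouse, injury was visually rated against untreated controls from 0 (no effect) to 10 (complete control).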

[2] = test system: giant foxtail; experiment: Test B pre/postemergence giant foxtail; type: in vivo, Setaria faberii
Summary of the method: as §1

[3] = test system: pigweed; experiment: Test B pre/postemergence pigweed; type: in vivo, Amaranthus retroflexus
Summary of the method: as §1

[4] = test system: purple nutsedge; experiment: Test B pre/postemergence purple nutsedge; type: in vivo, Cyperus rotundus
Summary of the method: as §1

[5] = test system: sugar beet; experiment: Test B pre/postemergence sugar beet; type: in vivo, Beta vulgaris
Summary of the method: as §1

[6] = test system: corn; experiment: Test B pre/postemergence corn; type: in vivo, Zea mays
Summary of the method: as §1

[7] = test system: blackgrass; experiment: Test B pre/postemergence blackgrass; type: in vivo, Alopecurus myosuroides
Summary of the method: as §1

[8] = test system: velvetleaf; experiment: Test B pre/postemergence velvetleaf; type: in vivo, Abutilon theophrasti
Summary of the method: as §1

[9] = test system: wheat; experiment: Test B pre/postemergence wheat; type: in vivo, Triticum aestivum
Summary of the method: as §1

[10] = test system: soybean; experiment: Test B pre/postemergence soybean; type: in vivo, Glycine max
Summary of the method: as §1

[11] = test system: surinam grass; experiment: Test B pre/postemergence surinam grass; type: in vivo, Brachiaria decumbens; settings: Postemergence
Summary of the method: as §1

[12] = test system: rape; experiment: Test B pre/postemergence rape; type: in vivo, Brassica napus
Summary of the method: as §1

[13] = test system: cocklebur; experiment: Test B pre/postemergence cocklebur; type: in vivo, Xanthium strumarium
Summary of the method: as §1

[14] = test system: bedstraw; experiment: Test B pre/postemergence bedstraw; type: in vivo, Galium aparine
Summary of the method: as §1

[15] = test system: crabgrass; experiment: Test B pre/postemergence crabgrass; type: in vivo, Digitaria sanguinalis
Summary of the method: as §1

[16] = test system: wild oat; experiment: Test B pre/postemergence wild oat; type: in vivo, Avena fatua
Summary of the method: as §1

[17] = Postemergence, Rate 62 g/ha, scale 0 to 10, 0 is no effect, 10 is complete control
[18] = Postemergence, Rate 125 g/ha, scale of 0 to 10 where 0 is no effect and 10 is complete control
[19] = Preemergence, Rate 125 g/ha, scale of 0 to 10 where 0 is no effect and 10 is complete control
[20] = Preemergence, Rate 250 g/ha, scale 0 (no effect) to 10 (complete control)
[21] = Rate 62 g/ha, Preemergence, scale 0 to 10
[22] = Rate 250 g/ha, Postemergence, scale 0 to 10, 0 is no effect, 10 is complete control
[23] = Rate 500 g/ha, Postemergence, scale 0 to 10, 0 is no effect, 10 is complete control
[24] = Rate 500 g/ha, Preemergence, scale 0 to 10 (0 no effect, 10 complete control)

## CC(CBr)Cn1c(=O)on(C(=O)N(c2ccc(F)cc2)C(C)C)c1=O (centres unmarked) [Compound 752]
[1]; [17]
  Plant response rating, Morningglory: 2
[1]; [18]
  Morningglory plant response rating: 2
[1]; [19]
  Plant response rating, Morningglory: 0
[1]; [20]
  Morningglory plant response rating: 0
[1]; [21]
  Morningglory plant response rating: 0
[1]; [22]
  Morningglory plant response rating: 8
[1]; [23]
  Morningglory plant response rating: 9
[1]; [24]
  Morningglory plant response rating: 0
[2]; [18]
  Giant foxtail plant response rating: 9
[2]; [19]
  Plant response rating, Giant foxtail: 10
[2]; [20]
  Giant foxtail plant response rating: 10
[2]; [21]
  Giant foxtail plant response rating: 10
[2]; [22]
  Giant foxtail plant response rating: 9
[2]; [23]
  Giant foxtail plant response rating: 9
[2]; [24]
  Giant foxtail plant response rating: 10
[3]; [17]
  Plant response rating, Redroot pigweed: 0
[3]; [18]
  Redroot pigweed plant response rating: 5
[3]; [19]
  Plant response rating, Redroot pigweed: 2
[3]; [20]
  Redroot pigweed plant response rating: 10
[3]; [21]
  Redroot pigweed plant response rating: 0
[3]; [22]
  Redroot pigweed plant response rating: 5
[3]; [23]
  Redroot pigweed plant response rating: 9
[3]; [24]
  Redroot pigweed plant response rating: 10
[4]; [17]
  Plant response rating, Nutsedge: 0
[4]; [18]
  Nutsedge plant response rating: 0
[4]; [19]
  Plant response rating, Nutsedge: 0
[4]; [21]
  Nutsedge plant response rating: 0
[4]; [22]
  Nutsedge plant response rating: 0
[4]; [23]
  Nutsedge plant response rating: 0
[4]; [24]
  Nutsedge plant response rating: 0
[5]; [17]
  Plant response rating, Sugarbeets: 3
[5]; [19]
  Plant response rating, Sugarbeets: 0
[5]; [20]
  Sugarbeets plant response rating: 3
[5]; [21]
  Sugarbeets plant response rating: 0
[5]; [22]
  Sugarbeets plant response rating: 3
[5]; [23]
  Sugarbeets plant response rating: 3
[5]; [24]
  Sugarbeets plant response rating: 3
[6]; [17]
  Plant response rating, Corn: 0
[6]; [18]
  Corn plant response rating: 0
[6]; [19]
  Plant response rating, Corn: 0
[6]; [20]
  Corn plant response rating: 0
[6]; [21]
  Corn plant response rating: 0
[6]; [22]
  Corn plant response rating: 0
[6]; [23]
  Corn plant response rating: 0
[6]; [24]
  Corn plant response rating: 0
[7]; [17]
  Plant response rating, Blackgrass: 0
[7]; [18]
  Blackgrass plant response rating: 2
[7]; [19]
  Plant response rating, Blackgrass: 9
[7]; [20]
  Blackgrass plant response rating: 9
[7]; [21]
  Blackgrass plant response rating: 4
[7]; [22]
  Blackgrass plant response rating: 6
[7]; [23]
  Blackgrass plant response rating: 6
[7]; [24]
  Blackgrass plant response rating: 10
[8]; [17]
  Plant response rating, Velvetleaf: 0
[8]; [19]
  Plant response rating, Velvetleaf: 0
[8]; [20]
  Velvetleaf plant response rating: 0
[8]; [21]
  Velvetleaf plant response rating: 0
[8]; [22]
  Velvetleaf plant response rating: 2
[8]; [23]
  Velvetleaf plant response rating: 2
[8]; [24]
  Velvetleaf plant response rating: 2
[9]; [17]
  Plant response rating, Wheat: 0
[9]; [19]
  Plant response rating, Wheat: 0
[9]; [20]
  Wheat plant response rating: 0
[9]; [21]
  Wheat plant response rating: 0
[9]; [22]
  Wheat plant response rating: 5
[9]; [23]
  Wheat plant response rating: 5
[9]; [24]
  Wheat plant response rating: 0
[10]; [17]
  Plant response rating, Soybean: 4
[10]; [19]
  Plant response rating, Soybean: 0
[10]; [20]
  Soybean plant response rating: 0
[10]; [21]
  Soybean plant response rating: 0
[10]; [22]
  Soybean plant response rating: 6
[10]; [23]
  Soybean plant response rating: 6
[10]; [24]
  Soybean plant response rating: 0
[11]; Rate 62 g/ha, scale 0 to 10, 0 is no effect, 10 is complete control
  Plant response rating, B. signalgrass: 0
[11]; Rate 125 g/ha, scale of 0 to 10 where 0 is no effect and 10 is complete control
  B. signalgrass plant response rating: 0
[11]; Rate 250 g/ha, scale 0 to 10, 0 is no effect, 10 is complete control
  B. signalgrass plant response rating: 2
[11]; Rate 500 g/ha, scale 0 to 10, 0 is no effect, 10 is complete control
  B. signalgrass plant response rating: 6
[12]; [17]
  Plant response rating, Rape: 2
[12]; [18]
  Rape plant response rating: 2
[12]; [19]
  Plant response rating, Rape: 3
[12]; [20]
  Rape plant response rating: 5
[12]; [21]
  Rape plant response rating: 0
[12]; [22]
  Rape plant response rating: 4
[12]; [23]
  Rape plant response rating: 4
[12]; [24]
  Rape plant response rating: 5
[13]; [17]
  Plant response rating, Cocklebur: 0
[13]; [18]
  Cocklebur plant response rating: 3
[13]; [19]
  Plant response rating, Cocklebur: 0
[13]; [20]
  Cocklebur plant response rating: 0
[13]; [21]
  Cocklebur plant response rating: 0
[13]; [23]
  Cocklebur plant response rating: 3
[13]; [24]
  Cocklebur plant response rating: 0
[14]; [17]
  Plant response rating, Bedstraw: 0
[14]; [18]
  Bedstraw plant response rating: 0
[14]; [19]
  Plant response rating, Bedstraw: 10
[14]; [20]
  Bedstraw plant response rating: 10
[14]; [21]
  Bedstraw plant response rating: 0
[14]; [22]
  Bedstraw plant response rating: 2
[14]; [23]
  Bedstraw plant response rating: 2
[14]; [24]
  Bedstraw plant response rating: 10
[15]; [17]
  Plant response rating, Crabgrass: 3
[15]; [18]
  Crabgrass plant response rating: 3
[15]; [19]
  Plant response rating, Crabgrass: 9
[15]; [20]
  Crabgrass plant response rating: 10
[15]; [21]
  Crabgrass plant response rating: 9
[15]; [22]
  Crabgrass plant response rating: 8
[15]; [23]
  Crabgrass plant response rating: 10
[15]; [24]
  Crabgrass plant response rating: 10
[16]; [17]
  Plant response rating, Wild oats: 0
[16]; [19]
  Plant response rating, Wild oats: 0
[16]; [20]
  Wild oats plant response rating: 7
[16]; [21]
  Wild oats plant response rating: 0
[16]; [22]
  Wild oats plant response rating: 0
[16]; [23]
  Wild oats plant response rating: 0
[16]; [24]
  Wild oats plant response rating: 8
